The remaining activity is the activity still measured, relative to the control. Broadly, the IC50 is the midpoint of a concentration-inhibition curve.

Assay [1] has as its system 121 kinases. As to the kind of experiment: Kinase profiling on a set of 121 kinases. The conditions noted are these: kinases presenting the highest inhibitions; lists not exhaustive. In kind it is biochemical. On the procedure: FIG. 1A: The potential inhibition of C14 was tested against 121 kinases, in vitro, at the concentration of 1 μM. The kinase activities, in the presence of C14, are represented, each kinase being represented by a vertical bar. Only 18 kinases have less than 30% activity in the presence of C14.
(§1) The specificity of C14 was tested, in vitro, against 121 kinases representative of the kinome. Assays run in duplicate, at the concentration of 1 μM, were performed by MRC (Dundee, UK). Results are represented in FIG. 1. The main targets are highlighted in FIG. 1B.
(§2) The profiling was performed at the MRC (Dundee University), in duplicate, on a set of 121 kinases. The panel is representative of the major different classes of kinases. Compounds were used at the concentration of 1 μM. In vitro, IC50 were determined on recombinant kinases by Reaction biology Corp (USA).

Assay [2] deals with T1, Aurora B (Homo sapiens, UniProt Q96GD4). As to the kind of experiment: Aurora B inhibition in cells: Histone H3 Ser10 phosphorylation by western blotting and immunofluorescence. The conditions noted are these: U2OS mitotic extracts; 1 μM overnight; western blotting (FIG. 3). More on the design: endogenous in cells; host or cells: U2OS (human osteosarcoma); HeLa also used for the maleate salts. In kind it is cell-based. As to the method:
Actin is used as control of quantity. Cells were incubated overnight in the presence of either C1, or C2 or CH21 or C14 or DMSO(C: control). All compounds were tested at 1 μM. Proteins were detected by western blotting.
Cells were incubated with the different molecules and Aurora B inhibition is estimated by western blotting (WB) and immuno fluorescent experiments. Histone H3 phosphorylated on Ser10 is used as a marker of Aurora B kinase activity and actin as an internal control. Each WB signal is compared to the control in the absence of compound. The efficiency estimated by WB is indicated by +++: very efficient inhibition to −: no inhibition. Immunofluorescent labelling of a mitotic cell by Histone H3 illustrates Aurora B kinase activity. However immunofluorescence is less sensitive than WB. Active molecules are underlined by a square and the intensity of the line indicates the efficiency of inhibition.
FIG. 10A: Immunofluorescence with phospho-Ser10-Histone H3 antibodies. Either the percentage of positive phospho-Ser10-Histone H3 is indicated or a representative mitosis shown. […] Immunofluorescent assays were realized with a specific phospho-antibody and mitotic U2OS cells are recognized by their DNA content stained with Hoechst. On the right, a representative cell or the percentage of H3-S10-P labelled mitosis.
FIG. 10B: Immunoblotting analysis of histone H3 phosphorylation. U2OS cells were incubated overnight with Nocodazole (50 nM) in the presence of either DMSO (Co) or Compounds (1 μM). Cells were then collected and lyzed. Identical amounts of the lyzed cell samples were run on 18% acrylamide gel containing SDS.
FIGS. 11B and 11C: Immunoblotting analysis of histone H3 phosphorylation. U2OS and HeLa cells were incubated overnight with Nocodazole (50 nM) in the presence of either DMSO (Co) or Compounds (1 μM). Cells were then collected and lyzed. Identical amounts of the lyzed cell samples were run on 18% acrylamide gel containing SDS.
Cells were incubated with the different molecules and Aurora B inhibition is estimated by western blotting and immunofluorescent experiments. Histone H3 phosphorylated on Ser10 is used as a marker of Aurora B kinase activity and actin as an internal control. Results are represented in FIGS. 4 and 10 and Table 3.
Cells were treated by compounds, harvested and lyzed in 9M urea then supplemented with Laemmli sample buffer. Cell extracts were subjected to SDS-PAGE and transferred to nitrocellulose filter (GE Healthcare). After blocking with 5% non-fat milk in PBS for at least 1 hour, the membranes were incubated with the primary antibodies. The following antibodies were used: phospho-Histone H3 Ser10 (1:2000, Upstate Biotechnology), anti LAST1 (Cell signalling), anti Aurora B (epitomics) and anti alpha-tubulin (Sigma) Anti-rabbit horseradish peroxidase (1:5000, GE Healthcare) was used as secondary antibodies. Bands were visualized by ECL technique (Amersham Bioscience).
Cells were seeded on glass coverslips and treated by compounds (1 μM) overnight. After treatment, cells were fixed in 4% formaldhehyde at 37° C. for 15 minutes, then permeabilized for 5 minutes with Triton X-100 in PBS.
Background: In western blotting, separated proteins are transferred to a membrane and probed.

Assay [3] concerns the target T2, Aurora A (Homo sapiens, UniProt O14965).
T2 sequence (O14965 1-403): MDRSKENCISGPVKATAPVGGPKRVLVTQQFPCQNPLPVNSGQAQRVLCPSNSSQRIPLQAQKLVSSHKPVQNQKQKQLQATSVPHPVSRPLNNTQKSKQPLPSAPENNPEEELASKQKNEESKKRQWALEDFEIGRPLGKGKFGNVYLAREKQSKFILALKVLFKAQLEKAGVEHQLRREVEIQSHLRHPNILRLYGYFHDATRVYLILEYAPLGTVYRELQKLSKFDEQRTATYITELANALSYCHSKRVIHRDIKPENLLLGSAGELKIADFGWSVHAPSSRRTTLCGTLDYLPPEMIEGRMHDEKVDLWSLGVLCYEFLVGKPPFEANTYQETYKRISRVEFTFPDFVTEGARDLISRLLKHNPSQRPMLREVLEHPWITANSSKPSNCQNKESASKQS
As to the kind of experiment: Kinase profiling in vitro at 1 μM. The class given is biochemical. The following applies: Aurora A; compound at 1 μM; read-out: percentage of remaining activity of recombinant kinase. On the procedure: Assays were run in vitro against recombinant kinases. The activity is reported for each kinase, grey histograms for CH21, white for C14 and gradation grey for C1. […] Therefore, C1 and C14 affect differently the Aurora kinase family.
as §1
(§3) In addition, the percentage of remaining activity of recombinant kinases Aurora kinases A and B and Checkpoint kinases 1 and 2 at the concentration of 1 μM of C1, C2 and C14 have been determined.
as §2

Assay [4] deals with HeLa cells. The conditions noted are these: previously reported in Hoang et al, 2009, indicated for comparison, read-out: IC50 (in nM), antiproliferative assay; cited from earlier work.
The target in assay [5] is T1, Aurora B. Put plainly: Kinase profiling in vitro at 1 μM. The following applies: compound at 1 μM, read-out: percentage of remaining activity of recombinant kinase. The class given is biochemical. On the procedure: as §1, §3, §2
The target of assay [6] is Chk2 (Homo sapiens, UniProt O96017). Put plainly: Kinase profiling in vitro at 1 μM. The class given is biochemical. The following applies: compound at 1 μM, read-out: percentage of remaining activity of recombinant kinase. As to the method:
as §1, §3, §2

Assay [7] deals with T3, CHK1 (Homo sapiens, UniProt O14757).
T3 sequence (O14757 1-476): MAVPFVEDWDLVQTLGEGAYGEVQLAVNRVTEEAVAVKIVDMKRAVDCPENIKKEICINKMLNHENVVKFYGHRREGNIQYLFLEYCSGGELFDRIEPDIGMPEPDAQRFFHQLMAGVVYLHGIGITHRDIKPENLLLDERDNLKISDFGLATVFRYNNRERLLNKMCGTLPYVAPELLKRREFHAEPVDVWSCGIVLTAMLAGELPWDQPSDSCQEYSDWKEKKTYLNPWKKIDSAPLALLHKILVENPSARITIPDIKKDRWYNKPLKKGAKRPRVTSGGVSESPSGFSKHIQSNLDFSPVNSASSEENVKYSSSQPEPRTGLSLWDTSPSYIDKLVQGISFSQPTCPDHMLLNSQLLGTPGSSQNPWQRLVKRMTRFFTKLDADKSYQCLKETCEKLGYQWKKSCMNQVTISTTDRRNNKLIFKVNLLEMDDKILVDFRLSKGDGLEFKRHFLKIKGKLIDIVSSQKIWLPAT
Put plainly: Kinase profiling in vitro at 1 μM. The class given is biochemical. The following applies: Chk1; compound at 1 μM; read-out: percentage of remaining activity of recombinant kinase. On the procedure: as §1, §3, §2

T1 sequence (Q96GD4 whole entry): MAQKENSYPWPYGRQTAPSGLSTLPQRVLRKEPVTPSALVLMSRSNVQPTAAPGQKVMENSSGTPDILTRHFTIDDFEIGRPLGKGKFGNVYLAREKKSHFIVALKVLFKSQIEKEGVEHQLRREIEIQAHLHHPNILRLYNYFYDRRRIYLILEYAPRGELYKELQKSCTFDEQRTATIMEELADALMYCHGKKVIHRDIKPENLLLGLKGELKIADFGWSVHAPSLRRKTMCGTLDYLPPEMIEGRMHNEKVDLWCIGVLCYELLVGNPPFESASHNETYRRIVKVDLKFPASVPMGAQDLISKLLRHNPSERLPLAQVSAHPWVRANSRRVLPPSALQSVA
Chk2, sequence (O96017 whole entry, species assumed): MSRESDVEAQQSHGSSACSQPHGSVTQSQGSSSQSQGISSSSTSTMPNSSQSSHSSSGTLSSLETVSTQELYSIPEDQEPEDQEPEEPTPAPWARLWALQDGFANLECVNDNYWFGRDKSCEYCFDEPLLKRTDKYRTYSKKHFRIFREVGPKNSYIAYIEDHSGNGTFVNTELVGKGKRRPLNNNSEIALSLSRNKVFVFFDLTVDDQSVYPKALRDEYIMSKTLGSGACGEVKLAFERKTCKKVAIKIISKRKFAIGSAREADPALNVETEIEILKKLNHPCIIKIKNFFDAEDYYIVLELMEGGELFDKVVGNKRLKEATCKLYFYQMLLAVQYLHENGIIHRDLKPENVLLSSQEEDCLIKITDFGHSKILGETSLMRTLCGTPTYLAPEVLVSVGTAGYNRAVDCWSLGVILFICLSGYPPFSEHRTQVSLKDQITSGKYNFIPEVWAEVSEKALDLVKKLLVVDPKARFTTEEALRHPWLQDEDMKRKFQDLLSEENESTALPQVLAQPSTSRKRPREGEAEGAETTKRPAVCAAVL

On to `COc1ccc2c(ccc3[nH]c4c(C)c[nH]c(=O)c4c32)c1` [Compound C2, reference compound], for which, in assay [1], the “Known Targets (%)” value is reported as “Aurora A Aurora B Chk1 Chk2 Flt3”. For the same molecule, the “Aurora B inhibition in cellulo (Histone H3 phosphorylation, in words)” value in assay [2] was “mild inhibitory activity”. Further, the remaining activity at 1 µM in assay [3] came out at 11%; in assay [5] it was 24%; in assay [6] it was 3%; in assay [7], 12%. The 50% inhibitory concentration (IC50) in assay [4] was 1160 ± 150 nM.

Source of the values: patent publication US20140073637A1, “AMINO-SUBSTITUTED-ALKYLOXY-BENZO[E]PYRIDO[4,3-B]INDOLE DERIVATIVES AS NEW POTENT KINASE INHIBITORS” (INSTITUT CURIE, priority 2011, published 2014).
